Data published in patent publication US20060069132A1, “Azolecarboxamide herbicides” (priority 2004, published 2006).

Experiments:
cocklebur = test: Test C pre-/postemergence herbicide test; format: in vivo, Xanthium strumarium; conditions: for Plant response rating, Cocklebur / Plant response rating (0 = no effect, 100 = complete control), Cocklebur: preemergence; for Cocklebur plant response rating: Preemergence, scale 0 to 100, 0 no effect, 100 complete control
Method in brief: (§1)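 Pre/post spray; non-phytotoxic solvent + surfactant. Post-timing 1–4 leaves, 2–18 cm. Read-out: visual % control vs untreated, day 12–14, greenhouse.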

bermudagrass = test: Test C pre-/postemergence herbicide test; format: in vivo, Cynodon dactylon; conditions: for Plant response rating, Bermudagrass / Plant response rating (0 = no effect, 100 = complete control), Bermudagrass: preemergence; for Bermudagrass plant response rating: Preemergence
Method in brief: as §1

eastern black nightshade = test: Test C pre-/postemergence herbicide test; format: in vivo, Solanum ptycanthum; conditions: for Plant response rating, Nightshade / Plant response rating (0 = no effect, 100 = complete control), Nightshade: preemergence; for Nightshade plant response rating: Preemergence, scale 0 to 100, 0 no effect, 100 complete control
Method in brief: as §1

yellow nutsedge = test: Test C pre-/postemergence herbicide test; format: in vivo, Cyperus esculentus; conditions: for Plant response rating, Nutsedge, Yellow / Plant response rating (0 = no effect, 100 = complete control), Nutsedge, Yellow: preemergence; for Nutsedge, Yellow plant response rating: Preemergence, scale 0 to 100, 0 no effect, 100 complete control
Method in brief: as §1

ducksalad = test: Test C flooded paddy test; format: in vivo, Heteranthera limosa; conditions: for Plant response rating, Ducksalad: 500 g ai/ha, visual rating after 12 to 14 days
[1] = 125 g ai/ha, scale 0 (no effect) to 100 (complete control), visual, 12 to 14 days
[2] = 62 g ai/ha, scale 0 to 100, 0 no effect, 100 complete control
[3] = 500 g ai/ha, scale 0 to 100, 0 no effect, 100 complete control
[4] = 500 g ai/ha, scale 0 to 100 (0 no effect, 100 complete control), visual, 12 to 14 days
[5] = 125 g ai/ha, scale 0 to 100 (0 no effect, 100 complete control)
[6] = 250 g ai/ha, scale of 0 to 100, 0 is no effect, 100 is complete control
[7] = scale 0 to 100 (0 no effect, 100 complete control)
[8] = 62 g ai/ha, scale 0 to 100 (0 no effect, 100 complete control)
[9] = 250 g ai/ha, scale 0 to 100 (0 no effect, 100 complete control), visual, 12 to 14 days

| SMILES | Plant response rating, Cocklebur (cocklebur; 62 g ai/ha, scale 0 to 100) | Plant response rating, Cocklebur (cocklebur; [1]) | Plant response rating, Cocklebur (cocklebur; 250 g ai/ha, scale 0-100) | Cocklebur plant response rating (cocklebur; 500 g ai/ha) | Plant response rating, Bermudagrass (bermudagrass; [2]) | Plant response rating, Bermudagrass (bermudagrass; [1]) | Plant response rating, Bermudagrass (bermudagrass; 250 g ai/ha, scale 0-100) | Bermudagrass plant response rating (bermudagrass; [3]) | Plant response rating, Nightshade (eastern black nightshade; 62 g ai/ha, scale 0 to 100) | Plant response rating, Nightshade (eastern black nightshade; [1]) | Plant response rating, Nightshade (eastern black nightshade; 250 g ai/ha, scale 0-100) | Plant response rating, Nightshade (eastern black nightshade; [4]) | Plant response rating, Nutsedge, Yellow (yellow nutsedge; 62 g ai/ha, scale 0 to 100) | Plant response rating, Nutsedge, Yellow (yellow nutsedge; [1]) | Plant response rating, Nutsedge, Yellow (yellow nutsedge; 250 g ai/ha, scale 0-100) | Plant response rating, Nutsedge, Yellow (yellow nutsedge; [4]) | Ducksalad plant response rating (ducksalad; 62 g ai/ha, scale 0 to 100) | Ducksalad plant response rating (ducksalad; [5]) | Ducksalad plant response rating (ducksalad; [6]) | Plant response rating, Ducksalad (ducksalad; [7]) | further results |
| --- | --- | --- | --- | --- | --- | --- | --- | --- | --- | --- | --- | --- | --- | --- | --- | --- | --- | --- | --- | --- | --- |
| CCn1nc(C2(C)CC2)cc1C(=O)Nc1cc(C(=O)N2CC=CC2)ccc1F [Compound 301] | 0 | 0 | 0 | 60 | 80 | 90 | 90 | 95 | 90 | 95 | 100 | 100 | 0 | 5 | 10 | 20 | 85 | 90 | 90 | 95 | – |
| CCn1nc(C(C)(C)C)cc1C(=O)Nc1ccc(OC)c(OC)c1 [Compound 298] | 0 | 0 | 0 | 0 | 50 | 55 | 80 | 95 | 100 | 100 | 100 | 100 | 0 | 0 | 20 | 30 | 35 | 40 | 80 | 90 | – |
| CCNC(=O)c1ccc(F)c(NC(=O)c2cn(C(C)(C)C)nc2CC)c1 [Compound 193] | 0 | – | – | 100 | 60 | 80 | 85 | 100 | 0 | 50 | 85 | – | 0 | 0 | 10 | – | – | 70 | 90 | 90 | Nightshade plant response rating (eastern black nightshade; 500 g ai/ha): 100; Nutsedge, Yellow plant response rating (yellow nutsedge; 500 g ai/ha): 60; Ducksalad plant response rating (ducksalad; [8]): 55 |
| CCc1nn(C(C)C)nc1C(=O)Nc1cccc(C(=S)N(C)C)c1 [Compound 409] | 0 | – | 70 | – | 40 | – | 85 | – | 45 | – | – | 95 | 0 | – | – | 55 | 30 | 30 | 80 | 85 | Plant response rating (0 = no effect, 100 = complete control), Cocklebur (cocklebur; 125 g ai/ha): 30; Plant response rating, Cocklebur (cocklebur; [4]): 80; Plant response rating (0 = no effect, 100 = complete control), Bermudagrass (bermudagrass; 125 g ai/ha): 50; Plant response rating, Bermudagrass (bermudagrass; [4]): 85; Plant response rating (0 = no effect, 100 = complete control), Nightshade (eastern black nightshade; 125 g ai/ha): 85; Plant response rating (0 = no effect, 100 = complete control), Nutsedge, Yellow (yellow nutsedge; 125 g ai/ha): 0 |
| C=CCNC(=O)c1cccc(NC(=O)c2nn(C(C)C)nc2CC)c1 [Compound 382] | 0 | – | 20 | – | 60 | – | 85 | – | 95 | – | 95 | 100 | 0 | – | 25 | 60 | 25 | 65 | 80 | 85 | Plant response rating (0 = no effect, 100 = complete control), Cocklebur (cocklebur; 125 g ai/ha): 15; Plant response rating, Cocklebur (cocklebur; [4]): 45; Plant response rating (0 = no effect, 100 = complete control), Bermudagrass (bermudagrass; 125 g ai/ha): 80; Plant response rating, Bermudagrass (bermudagrass; [4]): 90; Plant response rating (0 = no effect, 100 = complete control), Nutsedge, Yellow (yellow nutsedge; 125 g ai/ha): 0 |
| CCc1nn(C(C)C)nc1C(=O)Nc1cccc(C(=O)N(C)CC)c1 [Compound 386] | 0 | – | 30 | – | 90 | – | 95 | – | 90 | – | 95 | 100 | 0 | – | 40 | 60 | 25 | 60 | 85 | 85 | Plant response rating (0 = no effect, 100 = complete control), Cocklebur (cocklebur; 125 g ai/ha): 20; Plant response rating, Cocklebur (cocklebur; [4]): 70; Plant response rating (0 = no effect, 100 = complete control), Bermudagrass (bermudagrass; 125 g ai/ha): 95; Plant response rating, Bermudagrass (bermudagrass; [4]): 95; Plant response rating (0 = no effect, 100 = complete control), Nightshade (eastern black nightshade; 125 g ai/ha): 95; Plant response rating (0 = no effect, 100 = complete control), Nutsedge, Yellow (yellow nutsedge; 125 g ai/ha): 10 |
| C=CCn1nc(C(C)(C)C)cc1C(=O)Nc1cccc(C(=O)NCC)c1 [Compound 56] | – | 0 | – | 0 | – | 90 | – | 95 | – | 95 | – | – | – | 0 | – | – | – | – | 70 | 75 | Plant response rating (0 = no effect, 100 = complete control), Cocklebur (cocklebur; 62 g ai/ha): 0; Plant response rating (0 = no effect, 100 = complete control), Bermudagrass (bermudagrass; 62 g ai/ha): 85; Plant response rating, Bermudagrass (bermudagrass; [9]): 95; Plant response rating (0 = no effect, 100 = complete control), Nightshade (eastern black nightshade; 62 g ai/ha): 90; Plant response rating, Nightshade (eastern black nightshade; [9]): 95; Nightshade plant response rating (eastern black nightshade; 500 g ai/ha): 95; Plant response rating (0 = no effect, 100 = complete control), Nutsedge, Yellow (yellow nutsedge; 62 g ai/ha): 0; Plant response rating, Nutsedge, Yellow (yellow nutsedge; [9]): 0; Nutsedge, Yellow plant response rating (yellow nutsedge; 500 g ai/ha): 20; Ducksalad plant response rating (ducksalad; [8]): 15; Ducksalad plant response rating (ducksalad; 125 g ai/ha, scale of 0 to 100, 0 is no effect, 100 is complete control): 55 |
| CCn1nc(C(C)(C)C)cc1C(=O)Nc1cc(C(=O)N(C)OC)ccc1F [Compound 244] | 0 | 0 | 0 | 0 | 95 | 100 | 100 | 100 | 100 | 100 | 100 | 100 | 0 | 0 | 0 | 0 | – | 85 | 85 | 95 | Ducksalad plant response rating (ducksalad; [8]): 25 |
